Test results as given in patent publication US20090018111A1, “Novel Antimicrobial Medicament” (priority 2004, published 2009).

How the values were obtained:
Assay in all cases: Sensitivity test (agar dilution), clinical isolate
[1] = system: B. cepacia 14429; type: cell-based, Burkholderia cepacia
Protocol: (§1) In addition, the antibacterial activities were tested against strains which are comparatively less sensitive to β-lactam compounds, namely clinically isolated 13 strains of Acinetobacter calcoaceticus and Acinetobacter lwoffi, clinically isolated 11 strains of Serratia marcescens, clinically isolated 12 strains of Burkholderia cepacia, and clinically isolated 15 strains of Pseudomonas aeruginosa.
(§2) According to the standard method of Japan Chemotherapeutic Society (Chemotherapy, vol. […], p 76-79 (1981)) the test was carried out using the agar dilution method. After dissolving test samples in distilled water, agar medium containing the test samples was prepared in such a manner that the final concentration became twice serial dilution by pouring serially diluted combination drug solution or a single drug solution into agar medium. As agar medium was used Mueller Hinton Agar medium (MHA). Then, each strain was cultivated over night at 37° C. in an incubator and suspended in buffered saline solution with gelatin (BSG) in the concentration of about 10^6 CFU/ml. The suspension (about 5 μl) containing test strains was inoculated to the medium containing the test samples by Micro Planter.
(§3) Each drug was weighed, and dissolved in distilled water to give a test sample. When the drugs are used in combination, two kinds of solution containing each drug were mixed so as to be various ratio of concentration to give a mixed solution. When the sample is subjected to sensitivity test, this mixed solution was diluted by twice serial dilution method.
(§4) Furthermore, when the drug is solely used, each test sample was used as it is, and diluted by twice serial dilution method from the maximum concentration to the minimum concentration.

[2] = system: B. cepacia 14300; type: cell-based, Burkholderia cepacia
Protocol: as §1, §2, §3, §4

[3] = system: B. cepacia 1892324; type: cell-based, Burkholderia cepacia
Protocol: as §1, §2, §3, §4

[4] = system: B. cepacia 7247; type: cell-based, Burkholderia cepacia
Protocol: as §1, §2, §3, §4

[5] = system: B. cepacia 3138; type: cell-based, Burkholderia cepacia
Protocol: as §1, §2, §3, §4

[6] = system: B. cepacia 14428; type: cell-based, Burkholderia cepacia
Protocol: as §1, §2, §3, §4

[7] = system: B. cepacia 1993527; type: cell-based, Burkholderia cepacia
Protocol: as §1, §2, §3, §4

[8] = system: B. cepacia 257-1; type: cell-based, Burkholderia cepacia
Protocol: as §1, §2, §3, §4

[9] = system: B. cepacia 14430; type: cell-based, Burkholderia cepacia
Protocol: as §1, §2, §3, §4

[10] = system: B. cepacia 14607; type: cell-based, Burkholderia cepacia
Protocol: as §1, §2, §3, §4

[11] = system: P. aeruginosa 13272; type: cell-based, Pseudomonas aeruginosa
Protocol: as §1, §2, §3, §4

[12] = system: P. aeruginosa 15040; type: cell-based, Pseudomonas aeruginosa
Protocol: as §1, §2, §3, §4

[13] = system: P. aeruginosa 13224; type: cell-based, Pseudomonas aeruginosa
Protocol: as §1, §2, §3, §4

[14] = system: P. aeruginosa 13269; type: cell-based, Pseudomonas aeruginosa
Protocol: as §1, §2, §3, §4

[15] = system: P. aeruginosa 15019; type: cell-based, Pseudomonas aeruginosa
Protocol: as §1, §2, §3, §4

## C[C@H]1C=C(c2csc(SC3=C(C(=O)O)N4C(=O)[C@H]([C@@H](C)O)[C@H]4[C@H]3C)n2)CN1 [SM, (4R,5S,6S)-6-[(1R)-1-Hydroxyethyl]-4-methyl-3-({4-[(5S)-5-methyl-2,5-dihydro-1H-pyrrol-3-yl]-1,3-thiazol-2-yl}sulfanyl)-7-oxo-1-azabicyclo[3.2.0]hept-2-ene-2-carboxylic acid]
[1]; Burkholderia cepacia, 14429, Concomitant (ME:SM = 1:1)
  MIC: 1 µg/mL
[1]; Burkholderia cepacia, 14429, Concomitant (ME:SM = 1:2)
  MIC: 1 µg/mL
[1]; Burkholderia cepacia, 14429, Concomitant (ME:SM = 1:4)
  MIC: 2 µg/mL
[1]; Burkholderia cepacia, 14429, Concomitant (ME:SM = 2:1)
  MIC: 0.5 µg/mL
[1]; Burkholderia cepacia, 14429, alone
  MIC: 4 µg/mL
[2]; Burkholderia cepacia, 14300, Concomitant (ME:SM = 1:1)
  MIC: 0.5 µg/mL
[2]; Burkholderia cepacia, 14300, Concomitant (ME:SM = 1:2)
  MIC: 1 µg/mL
[2]; Burkholderia cepacia, 14300, Concomitant (ME:SM = 1:4)
  MIC: 1 µg/mL
[2]; Burkholderia cepacia, 14300, Concomitant (ME:SM = 2:1)
  MIC: 0.25 µg/mL
[2]; Burkholderia cepacia, 14300, alone
  MIC: 2 µg/mL
[3]; Burkholderia cepacia, 1892324, Concomitant (ME:SM = 1:1)
  MIC: 1 µg/mL
[3]; Burkholderia cepacia, 1892324, Concomitant (ME:SM = 1:2)
  MIC: 2 µg/mL
[3]; Burkholderia cepacia, 1892324, Concomitant (ME:SM = 1:4)
  MIC: 2 µg/mL
[3]; Burkholderia cepacia, 1892324, Concomitant (ME:SM = 2:1)
  MIC: 1 µg/mL
[3]; Burkholderia cepacia, 1892324, alone
  MIC: 4 µg/mL
[4]; Burkholderia cepacia, 7247, Concomitant (ME:SM = 1:1)
  MIC: 2 µg/mL
[4]; Burkholderia cepacia, 7247, Concomitant (ME:SM = 1:2)
  MIC: 4 µg/mL
[4]; Burkholderia cepacia, 7247, Concomitant (ME:SM = 1:4)
  MIC: 8 µg/mL
[4]; Burkholderia cepacia, 7247, Concomitant (ME:SM = 2:1)
  MIC: 1 µg/mL
[4]; Burkholderia cepacia, 7247, alone
  MIC: 16 µg/mL
[5]; Burkholderia cepacia, 3138, Concomitant (ME:SM = 1:1)
  MIC: 1 µg/mL
[5]; Burkholderia cepacia, 3138, Concomitant (ME:SM = 1:2)
  MIC: 2 µg/mL
[5]; Burkholderia cepacia, 3138, Concomitant (ME:SM = 1:4)
  MIC: 8 µg/mL
[5]; Burkholderia cepacia, 3138, Concomitant (ME:SM = 2:1)
  MIC: 1 µg/mL
[5]; Burkholderia cepacia, 3138, alone
  MIC: 8 µg/mL
[6]; Burkholderia cepacia, 14428, Concomitant (ME:SM = 1:1)
  MIC: 1 µg/mL
[6]; Burkholderia cepacia, 14428, Concomitant (ME:SM = 1:2)
  MIC: 2 µg/mL
[6]; Burkholderia cepacia, 14428, Concomitant (ME:SM = 1:4)
  MIC: 2 µg/mL
[6]; Burkholderia cepacia, 14428, Concomitant (ME:SM = 2:1)
  MIC: 0.5 µg/mL
[6]; Burkholderia cepacia, 14428, alone
  MIC: 8 µg/mL
[7]; Burkholderia cepacia, 1993527, Concomitant (ME:SM = 1:1)
  MIC: 1 µg/mL
[7]; Burkholderia cepacia, 1993527, Concomitant (ME:SM = 1:2)
  MIC: 2 µg/mL
[7]; Burkholderia cepacia, 1993527, Concomitant (ME:SM = 1:4)
  MIC: 8 µg/mL
[7]; Burkholderia cepacia, 1993527, Concomitant (ME:SM = 2:1)
  MIC: 1 µg/mL
[7]; Burkholderia cepacia, 1993527, alone
  MIC: 8 µg/mL
[8]; Burkholderia cepacia, 2571, Concomitant (ME:SM = 1:1)
  MIC: 0.5 µg/mL
[8]; Burkholderia cepacia, 2571, Concomitant (ME:SM = 1:2)
  MIC: 0.5 µg/mL
[8]; Burkholderia cepacia, 2571, Concomitant (ME:SM = 1:4)
  MIC: 1 µg/mL
[8]; Burkholderia cepacia, 2571, Concomitant (ME:SM = 2:1)
  MIC: 0.25 µg/mL
[8]; Burkholderia cepacia, 2571, alone
  MIC: 4 µg/mL
[9]; Burkholderia cepacia, 14430, Concomitant (ME:SM = 1:1)
  MIC: 1 µg/mL
[9]; Burkholderia cepacia, 14430, Concomitant (ME:SM = 1:2)
  MIC: 2 µg/mL
[9]; Burkholderia cepacia, 14430, Concomitant (ME:SM = 1:4)
  MIC: 8 µg/mL
[9]; Burkholderia cepacia, 14430, Concomitant (ME:SM = 2:1)
  MIC: 1 µg/mL
[9]; Burkholderia cepacia, 14430, alone
  MIC: 8 µg/mL
[10]; Burkholderia cepacia, 14607, Concomitant (ME:SM = 1:1)
  MIC: 1 µg/mL
[10]; Burkholderia cepacia, 14607, Concomitant (ME:SM = 1:2)
  MIC: 1 µg/mL
[10]; Burkholderia cepacia, 14607, Concomitant (ME:SM = 1:4)
  MIC: 2 µg/mL
[10]; Burkholderia cepacia, 14607, Concomitant (ME:SM = 2:1)
  MIC: 0.5 µg/mL
[10]; Burkholderia cepacia, 14607, alone
  MIC: 4 µg/mL
[11]; Pseudomonas aeruginosa, 13272, Concomitant (ME:SM = 1:1)
  MIC: 4 µg/mL
[11]; Pseudomonas aeruginosa, 13272, Concomitant (ME:SM = 1:2)
  MIC: 4 µg/mL
[11]; Pseudomonas aeruginosa, 13272, Concomitant (ME:SM = 1:4)
  MIC: 8 µg/mL
[11]; Pseudomonas aeruginosa, 13272, Concomitant (ME:SM = 2:1)
  MIC: 2 µg/mL
[11]; Pseudomonas aeruginosa, 13272, alone
  MIC: 16 µg/mL
[12]; Pseudomonas aeruginosa, 15040, Concomitant (ME:SM = 1:1)
  MIC: 4 µg/mL
[12]; Pseudomonas aeruginosa, 15040, Concomitant (ME:SM = 1:2)
  MIC: 4 µg/mL
[12]; Pseudomonas aeruginosa, 15040, Concomitant (ME:SM = 1:4)
  MIC: 8 µg/mL
[12]; Pseudomonas aeruginosa, 15040, Concomitant (ME:SM = 2:1)
  MIC: 2 µg/mL
[12]; Pseudomonas aeruginosa, 15040, alone
  MIC: 16 µg/mL
[13]; Pseudomonas aeruginosa, 13224, Concomitant (ME:SM = 1:1)
  MIC: 4 µg/mL
[13]; Pseudomonas aeruginosa, 13224, Concomitant (ME:SM = 1:2)
  MIC: 4 µg/mL
[13]; Pseudomonas aeruginosa, 13224, Concomitant (ME:SM = 1:4)
  MIC: 8 µg/mL
[13]; Pseudomonas aeruginosa, 13224, Concomitant (ME:SM = 2:1)
  MIC: 2 µg/mL
[13]; Pseudomonas aeruginosa, 13224, alone
  MIC: 16 µg/mL
[14]; Pseudomonas aeruginosa, 13269, Concomitant (ME:SM = 1:1)
  MIC: 4 µg/mL
[14]; Pseudomonas aeruginosa, 13269, Concomitant (ME:SM = 1:2)
  MIC: 4 µg/mL
[14]; Pseudomonas aeruginosa, 13269, Concomitant (ME:SM = 1:4)
  MIC: 8 µg/mL
[14]; Pseudomonas aeruginosa, 13269, Concomitant (ME:SM = 2:1)
  MIC: 2 µg/mL
[14]; Pseudomonas aeruginosa, 13269, alone
  MIC: 16 µg/mL
[15]; Pseudomonas aeruginosa, 15019, Concomitant (ME:SM = 1:1)
  MIC: 4 µg/mL
[15]; Pseudomonas aeruginosa, 15019, Concomitant (ME:SM = 1:2)
  MIC: 8 µg/mL
[15]; Pseudomonas aeruginosa, 15019, Concomitant (ME:SM = 1:4)
  MIC: 8 µg/mL
[15]; Pseudomonas aeruginosa, 15019, Concomitant (ME:SM = 2:1)
  MIC: 2 µg/mL
[15]; Pseudomonas aeruginosa, 15019, alone
  MIC: 16 µg/mL
